The values below come from patent US20110288052A1, “NOVEL COMPOUNDS, PHARMACEUTICAL COMPOSITIONS CONTAINING SAME, AND METHODS OF USE FOR SAME” (priority 2008, published 2011).

≈ marks a conversion by molar mass, not a printed value.

Series [1] concerns MCF-7 human breast cancer cells. Description: XTT cytotoxicity assay, MCF-7 (M). It is filed as cell-based. Particulars: MCF7, MCF-7, 72 hours. On the procedure:
XTT Cytotoxicity Assay The XTT assay is a non-radioactive alternative for the [^51Cr] release cytotoxicity assay. XTT is a tetrazolium salt that is reduced to a formazan dye only by metabolically active, viable cells. The reduction of XTT is measured spectrophotometrically as OD490-OD650. To measure the cytotoxicity of specific compounds against cancer cells, 9×10^3 MCF-7 human breast cancer cells (shown in the tables as “(M)”), obtained from the American Type Culture Collection are plated per well in 96 well plates in DMEM medium with 10% fetal bovine serum, insulin, penicillin, and streptomycin. Following overnight culture at 37° C. and 5% CO2, the compounds to be tested, dissolved in DMSO, are added to the wells in 1 μl volume at the following concentrations: 80, 40, 20, 10, 5, 2.5, 1.25, and 0.625 μg/ml in triplicate. Additional concentrations are tested if required. 1 μl of DMSO is added to triplicate wells are the vehicle control. C75 is run at 40, 20, […], and 5 μg/ml in triplicate as positive controls. After 72 hours of incubation, cells are incubated for 4 hours with the XTT reagent as per manufacturer's instructions (Cell Proliferation Kit II (XTT) Roche). Plates are read at OD490 and OD650 on a Molecular Devices SpectraMax Plus Spectrophotometer. Three wells containing the XTT reagent without cells serve as the plate blank. XTT data are reported as OD490-OD650. Averages and standard error of the mean are computed using SOFTmax Pro software (Molecular Dynamics). The IC50 for the compounds is defined as the concentration of drug leading to a 50% reduction in OD490-OD650 compared to controls. The OD490-OD650 are computed by the SOFTmax PRO software (Molecular Devices) for each compound concentration. IC50 is calculated by linear regression, plotting the FAS activity as percent of control versus drug concentrations. Linear regression, best-fit line, r^2, and 95% confidence intervals are determined using Prism Version 3.0 (Graph Pad Software).
(In general: Tetrazolium assays rely on reduction of a dye to a coloured formazan, in cell work by metabolically active cells.)

Series [2] concerns MCF-7 human breast cancer cells (fatty acid synthesis pathway activity). Description: [14C]acetate incorporation into total lipids. Type of series: cell-based. The settings on record: MCF7, [14C]acetate incorporation into lipids. On the procedure:
Measurement of [^14C]acetate Incorporation into Total Lipids and Determination of IC50 of Compounds. This assay measures the incorporation of [^14C]acetate into total lipids and is a measure of fatty acid synthesis pathway activity in vitro. It is utilized to measure inhibition of fatty acid synthesis in vitro.
MCF-7 human breast cancer cells cultured as above, are plated at 5×10^4 cells per well in 24-well plates. Following overnight incubation, the compounds to be tested, solubilized in DMSO, are added at 5, 10, and 20 μg/ml in triplicate, with lower concentrations tested if necessary. DMSO is added to triplicate wells for a vehicle control. C75 is run at 5 and 10 μg/ml in triplicate as positive controls. After 4 hours of incubation, 0.25 μCi of [^14C]acetate (10 μl volume) is added to each well.
After 2 hours of additional incubation, medium is aspirated from the wells and 800 μl of chloroform:methanol (2:1) and 700 μl of 4 mM MgCl2 is added to each well. Contents of each well are transferred to 1.5 Eppendorf tubes, and spun at full-speed for 2 minutes in a high-speed Eppendorf Microcentrifuge 5415D. After removal of the aqueous (upper) layer, an additional 700 μl of chloroform:methanol (2:1) and 500 μl of 4 mM MgCl2 are added to each tube and then centrifuged for 1 minutes as above. The aqueous layer is removed with a Pasteur pipette and discarded. An additional 400 μl of chloroform:methanol (2:1) and 200 μl of 4 mM MgCl2 are added to each tube, then centrifuged and aqueous layer is discarded. The lower (organic) phase is transferred into a scintillation vial and dried at 40° C. under N2 gas. Once dried, 3 ml of scintillant (APB #NBC5104) is added and vials are counted for ^14C. The Beckman Scintillation counter calculates the average cpm values for triplicates.
The IC50 for the compounds is defined as the concentration of drug leading to a 50% reduction in [^14C]acetate incorporation into lipids compared to controls. This is determined by plotting the average cpm for each inhibitor concentration tested, performing linear regression and computing the best-fit line, r^2 values, and 95% confidence intervals. The average cpm values are computed by the Beckman scintillation counter (Model LS6500) for each compound concentration. Computation of linear regression, best-fit line, r^2, and 95% confidence intervals are calculated using Prism Version 3.0 (Graph Pad Software).

The nature of series [3]: Solubility problem noted during the assays. It is filed as physicochemical. The settings on record: for solubility: read-out: Sol Prob (solubility problem at concentration).
Series [4] in a line: Weight loss screen. Particulars: 60 mg/kg intraperitoneally. It is filed as in vivo, Balb/C mice. The procedure: Weight Loss Screen Balb/C mice (Jackson Labs) are utilized for the initial weight loss screening. Animals are housed in temperature and 12 hour day/night cycle rooms and fed mouse chow and water ad lib. Three mice are utilized for each compound tested with vehicle controls in triplicate per experiment. For the experiments, mice are housed separately for each compound tested three mice to a cage. Compounds are diluted in DMSO at 10 mg/ml and mice are injected intraperitoneally with 60 mg/kg in approximately 100 μl of DMSO or with vehicle alone. Mice are observed and weighed daily; average weights and standard errors are computed with Excel (Microsoft). The experiment continues until treated animals reach their pretreatment weights.

For orientation: IC50 means the concentration that inhibits the measured activity by half. The low end stands for inhibition by little substance, the high end for a need for much substance. `CCCCCCCCC1(C)SC(=O)C=C1OCC(=O)Nc1ccc2c(c1)OCO2` (stereo not shown) came in with an IC50 in series [1] of 8.2 µg/mL (≈ 19.5 µM).

In the case of `CCCCCCCC[C@]1(C)SC(=O)C=C1OCC(=O)Nc1ccccc1OC(F)(F)F`, the IC50 in series [2] and in series [1] was more than 80 µg/mL each time.

Regarding `CCCCCCCCC1(C)OC(=O)C=C1OCC(=O)Nc1ccc(Cl)cc1` (stereo not shown), the solubility in series [3] turned out to be 80 µg/mL (≈ 203 µM). For the same molecule, inhibition in series [1] was half-maximal at 6 µg/mL (≈ 15.2 µM) (IC50).

With `CCCCCCCCC1(C)SC(=O)C=C1OCC(=O)Nc1cccc(OC(F)(F)F)c1` (stereo not shown), in series [3], the solubility was 40 µg/mL (≈ 87 µM). Moreover, the IC50 in series [2] is 17.1 µg/mL (≈ 37.2 µM); in series [1], 6.4 µg/mL (≈ 13.9 µM).

As for `CCCCCCCCC1(C)SC(=O)C=C1OCC(=O)Nc1ccc(OC(F)(F)F)cc1` (stereo not shown), the “Weight Loss” value in series [4] (day 1) is 60 mg/kg: 2.2% (day 1). Moreover, the values for the IC50 in series [2] and in series [1] were 8.2 µg/mL (≈ 17.8 µM) and 1.8 µg/mL (≈ 3.92 µM), respectively.

Consider `CCCCCCCCC1(C)SC(=O)C=C1OCC(=O)Nc1ccc(SC)cc1` (stereo not shown), for which the solubility in series [3] worked out at 40 µg/mL (≈ 94.9 µM). Further, the IC50 in series [2] was more than 80 µg/mL; in series [1], 7.9 µg/mL (≈ 18.7 µM).

Regarding `CCCCCCCCOc1ccc(NC(=O)COC2=CC(=O)SC2(C)CCCCCCCC)cc1` (stereo not shown), the IC50 in series [2] and in series [1] was more than 80 µg/mL each time.

Take `CCCCCCCCC1(C)SC(=O)C=C1OCC(=O)Nc1ccc(Cl)cc1` (stereo not shown): the “Solubility remark on FAS IC50” value in series [3] (FAS assay) is “Limited by Solubility”. Besides, the “Weight Loss” value in series [4] (day 1) is 60 mg/kg: 0.2% (day 1). For the same molecule, the 50% inhibitory concentration (IC50) in series [2] worked out at 19.2 ± 2 µg/mL (≈ 46.8 µM); in series [1], 5.2 ± 2 µg/mL (≈ 12.7 µM).

Regarding `CCCCCCCCC1(C)SC(=O)C=C1OCC(=O)Nc1ccc(Oc2ccc(Cl)cc2)cc1` (stereo not shown), the “Weight Loss” value in series [4] (day 4) is given as 60 mg/kg: 3.1% (day 4). In addition, the values for the IC50 in series [2] and in series [1] were more than 80 µg/mL and 3.1 µg/mL (≈ 6.17 µM), respectively.

Regarding `CCCCCCCCC1(C)SC(=O)C=C1OCC(=O)Nc1ccc(Cl)cc1Cl` (stereo not shown), in series [3], the solubility was 40 µg/mL (≈ 90 µM). This molecule also registered an IC50 in series [1] of 16.8 µg/mL (≈ 37.8 µM).

Turning to `CCCCCCCC[C@]1(C)SC(=O)C=C1OCC(=O)Nc1ccccc1C(F)(F)F`, the solubility in series [3] is 80 µg/mL (≈ 180 µM). In addition, the IC50 in series [2] is more than 80 µg/mL; in series [1], 17.6 µg/mL (≈ 39.7 µM).

As for `CCCCCCCCC1(C)SC(=O)C=C1OCC(=O)Nc1ccccc1` (stereo not shown), the IC50 in series [1] came out at 6.2 µg/mL (≈ 16.5 µM).

As for `CCCCCCCCC1(C)SC(=O)C=C1OCC(=O)Nc1ccc(-c2cccs2)cc1` (stereo not shown), the values for the IC50 in series [2] and in series [1] were 80.2 µg/mL (≈ 175 µM) and more than 80 µg/mL, respectively.

Take `CCCCCCCCC1(C)SC(=O)C=C1OCC(=O)Nc1cccc(C(F)(F)F)c1` (stereo not shown): in series [3], the solubility was determined as 80 µg/mL (≈ 180 µM). The IC50 in series [2] was 12.3 µg/mL (≈ 27.7 µM); in series [1], 5.9 µg/mL (≈ 13.3 µM).

As for `CCCCCCCCC1(C)SC(=O)C=C1OCC(=O)Nc1ccccc1SC` (stereo not shown), the solubility in series [3] worked out at 40 µg/mL (≈ 94.9 µM). For the same molecule, the 50% inhibitory concentration (IC50) in series [2] is more than 80 µg/mL; in series [1], 26.9 µg/mL (≈ 63.8 µM).

Take `CCCCCCCCC1(C)SC(=O)C=C1OCC(=O)Nc1ccccc1N1CCCCC1` (stereo not shown): the IC50 in series [1] was found to be 18.6 µg/mL (≈ 40.6 µM).

The molecule `CCCCCCCCC1(C)SC(=O)C=C1OCC(=O)Nc1ccc(Cl)cc1C(F)(F)F` (stereo not shown) displayed an IC50 in series [1] of 9.6 µg/mL (≈ 20.1 µM).

Take `CCCCCCCCC1(C)SC(=O)C=C1OCC(=O)Nc1ccc(C(F)(F)F)cc1` (stereo not shown): the IC50 in series [2] was less than 2.5 µg/mL; in series [1] it was 2.2 µg/mL (≈ 4.96 µM).

As for `CCCCCCCCC1(C)SC(=O)C=C1OCC(=O)Nc1ccc(OC)cc1` (stereo not shown), the values for the IC50 in series [2] and in series [1] were 23 µg/mL (≈ 56.7 µM) and 9.7 µg/mL (≈ 23.9 µM), respectively.
